This note sets out measurements from patent publication US6924278B2, “Aroyl-piperazine derivatives, their preparation and their use as tachykinin antagonists” (Fujisawa Pharmaceutical Co., Ltd., priority 1997, dated 2005).

Bounds are passed on as bounds.

The subject of one series is emesis in the ferret. In words: Emesis in the ferret (copper sulfate-induced retching and vomiting). It counts as in vivo. The conditions noted are these: dose of 1.0 mg/kg i.v., 30 min before intra-gastric copper sulfate (40 mg/kg/ml), observed for the next 30 min. The protocol: Individually housed adult male ferrets (Marshall Farms, 1.4 to 2.2 kg) were given an i.v. injection of a solution contatining a test compound. 30 Min later the emetic responses (retching and vomiting) were induced by administration of intra-gastric copper sulfate (40 mg/kg/ml) and observed for the next 30 min. The timing and number of retches and vomits observed were recorded for each animal. An individual animal was tested with at least 10 days between experiments.

Another series deals with T1, h-NK1 receptors (Homo sapiens, UniProt P25103).
T1 construct: expressed in transfected cells; host or cells: CHO cells (permanent expression), crude cell membranes
Nature of the series: Evaluation of NK1 antagonist transport efficiency to the central nervous system using a h-NK1 receptor binding assay (brain extract after i.v. dosing of rats). The conditions noted are these: 5 min; compound extracted from brain of male SD rats 5 min after i.v. injection at the dose of 1 mg/kg; CHO cell membranes expressing h-NK1; read-out: inhibition rate of 125I-BH-Substance P binding to h-NK1 receptors. The protocol: A. Evaluation of NK1 Antagonist Transport Efficiency to the Cental Nervous System using a h-NK1 Receptor Binding Assay
(1) Administration of Test Compound and Extraction of the Compound from Brain
Male SD rats were given an i.v. injection of a solution containing a test compound (1 mg/kg). 5 Min later the animals were anesthetized by ether, bled and perfused through the aorta ascendens with 20 ml of saline. The brain was rapidly removed, weighed and homogenized in 4 vol. ice-cold distilled water by using Polytoron (KINEMATICA). To extract the test compound, 500 μl of the homogenate, 100 μl of methanol, 500 μl of 0.1 N NaOH and 4 ml of ethyl acetate were mixed by shaking for 10 min at room temperature. The organic phase (2.5 ml) was recovered by centrifugation at 3,000 rpm for 10 min, dried and dissolved in dimethyl sulfoxide.
(2) h-NK1 Receptor Binding Assay
(a) Crude CHO Cell Membrane Preparation
CHO cells permanently expressing h-NK1 receptors were harvested and homogenized with a Dounce homogenizer at 4° C. in a buffer (0.25 M sucrose, 25 mM Tris-HCl (pH 7.4), 10 mM MgCl2, 1 mM EDTA, 5 μg/ml p-APMSF). The homogenate was centrifuged (500×g, 10 min), and the pellet was resuspended in the same buffer, homogenized, and centrifuged. The two supernatants were combined and centrifuged (100,000×g, 1 hour). The crude cell membranes thus isolated were resuspended in a buffer (25 mM Tris-HCl (pH 7.4), 10 mM MgCl2, 1 mM. EDTA, 5 μg/ml p-APMSF) and stored at −80° C. until use.
(b) ^125I-BH-Substance P Binding to the Prepared Membrane
Cell membranes (6 μg/ml) were incubated with ^125I-BH-Substance P (0.1 nM) with or without the extracted compounds in 0.25 ml of a medium (50 mM Tris-HCl (pH 7.4), 5 mM MnCl2, 20 μg/ml chymostatin, 40 μg/ml bacitracin, 4 μg/ml leupeptin, 5 μg/ml p-APMSF, 200 μg/ml BSA) at 22° C. for 90 min. At the end of the incubation period, the contents were quickly filtered through a Blue Mat 11740 filter (pretreated with 0.1% polyethylenimine for 3 hours prior to use) by using SKATRON Cell Harvester. The filter was then washed with a washing buffer (50 mM Tris-HCl (pH 7.4), 5 mM MnCl2). The radioactivity was counted by using an auto gamma counter (Packard RIASTAR 5420A). All data presented are specific binding defined as that displaceable by 3 μM unlabeled Substance P.

T1 sequence (P25103 whole entry): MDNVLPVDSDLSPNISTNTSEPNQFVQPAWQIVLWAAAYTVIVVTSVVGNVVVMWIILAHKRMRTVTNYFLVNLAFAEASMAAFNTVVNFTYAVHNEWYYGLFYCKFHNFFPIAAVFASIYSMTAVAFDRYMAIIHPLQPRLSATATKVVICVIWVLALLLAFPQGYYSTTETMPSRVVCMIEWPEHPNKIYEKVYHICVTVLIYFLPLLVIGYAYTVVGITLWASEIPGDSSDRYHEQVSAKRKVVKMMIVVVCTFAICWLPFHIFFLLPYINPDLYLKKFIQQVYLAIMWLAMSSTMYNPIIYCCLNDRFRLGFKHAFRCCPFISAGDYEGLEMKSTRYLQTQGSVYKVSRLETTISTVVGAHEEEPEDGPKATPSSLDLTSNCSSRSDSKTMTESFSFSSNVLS

`Cc1ccc(C[C@@H]2CN(CCCN(C=O)N3CCOCC3)CCN2C(=O)c2cc(C(F)(F)F)cc(C(F)(F)F)c2)cc1C.Cl` [Example 26]: the “inhibition rate of emesis in the ferret” value in the series on emesis in the ferret is reported as 100%.
Still for that read-out and setting: with `CN(CCN1CCN(C(=O)c2cc(C(F)(F)F)cc(C(F)(F)F)c2)[C@H](Cc2c[nH]c3ccccc23)C1)Cc1cccnc1.Cl.Cl` [Example 41, (2R)-1-[3,5-Bis(trifluoromethyl)benzoyl]-2-[(1H-indol-3-yl)methyl]-4-[2-[N-methyl-N-(3-pyridylmethyl)amino]ethyl]piperazine dihydrochloride] the figure was 100%.
Molecule `Cl.Cl.O=C(c1cc(C(F)(F)F)cc(C(F)(F)F)c1)N1CCN(CCCc2ccccn2)C[C@H]1Cc1c[nH]c2ccccc12` [4-(2), (2R)-1-[3,5-Bis(trifluoromethyl)benzoyl]-2-[(1H-indol-3-yl)methyl]-4-[3-(2-pyridyl)propyl]piperazine dihydrochloride] yielded a melting point of 80 to 100 °C. In addition, the “inhibition rate of emesis in the ferret” value in the series on emesis in the ferret was determined as 100%.
In the case of `CN(CCN1CCN(C(=O)c2cc(C(F)(F)F)cc(C(F)(F)F)c2)[C@H](Cc2ccc3ccccc3c2)C1)Cc1cccnc1.Cl.Cl` [Example 40], in the series on emesis in the ferret, the “inhibition rate of emesis in the ferret” value amounted to 100%.
With `Cc1ccc(C[C@@H]2CN(Cc3cnn(CCN4CCOCC4)c3)CCN2C(=O)c2cc(C(F)(F)F)cc(C(F)(F)F)c2)cc1C.Cl.Cl` [Example 29, (2R)-1-[3,5-bis(trifluoromethyl)benzoyl]-2-(3,4-dimethylbenzyl)-4-[[1-(2-morpholinoethyl)-1H-pyrazol-4-yl]methyl]piperazine dihydrochloride], the melting point lay within 115 to 116 °C. The “inhibition rate of emesis in the ferret” value with emesis in the ferret was found to be 100%. Moreover, the inhibition at 1 mg/kg on h-NK1 receptors is greater than 80%.
Consider `Cc1ccc(C[C@@H]2CN(C/C=C/[C@@H]3COCCN3)CCN2C(=O)c2cc(C(F)(F)F)cc(C(F)(F)F)c2)cc1C.Cl.Cl` [Example 45, (2R)-1-[3,5-bis(trifluoromethyl)benzoyl]-2-(3,4-dimethylbenzyl)-4-[(2E)-3-[(3R)-3-morpholinyl]-2-propenyl]piperazine dihydrochloride], for which the melting point lay within 225 to 232 °C. Also, the inhibition at 1 mg/kg at h-NK1 receptors is greater than 80%.
For `COCC1CN(CCCN2CCN(C(=O)c3cc(C(F)(F)F)cc(C(F)(F)F)c3)[C@H](Cc3ccc(C)c(C)c3)C2)CCO1.Cl` (stereo partly drawn) [80-(7), (2R)-1-[3,5-Bis(trifluoromethyl)benzoyl]-2-(3,4-dimethylbenzyl)-4-[3-(2-methoxymethylmorpholino)propyl]piperazine hydrochloride] the same measures were 145 to 155 °C and greater than 80%.
For `Cl.Cl.O=C(c1cc(C(F)(F)F)cc(C(F)(F)F)c1)N1CCN(C/C=C/c2cccnc2)C[C@H]1Cc1c[nH]c2ccccc12` [56-(2), (2R)-1-[3,5-Bis(trifluoromethyl)benzoyl]-2-[(1H-indol-3-yl)methyl]-4-[(2E)-3-(3-pyridyl)-2-propenyl]piperazine dihydrochloride] the same measures were 195 to 203 °C and greater than 80%.
For `COC[C@H]1COCCN1C/C=C/CN1CCN(C(=O)c2cc(C(F)(F)F)cc(C(F)(F)F)c2)[C@H](Cc2ccc(C)c(C)c2)C1.Cl.Cl` [73-(3), (2R)-1-[3,5-Bis(trifluoromethyl)benzoyl]-2-(3,4-dimethylbenzyl)-4-[(E)-4-((3S)-3-methoxymethylmorpholino)-2-butenyl]piperazine dihydrochloride] the same measures were 130 to 140 °C and greater than 80%.
On to `Cc1ccc(C[C@@H]2CN(CCN3CCOC[C@@H]3CF)CCN2C(=O)c2cc(C(F)(F)F)cc(C(F)(F)F)c2)cc1C.Cl.Cl` [81-(1), (2R)-1-[3,5-Bis(trifluoromethyl)benzoyl]-2-(3,4-dimethylbenzyl)-4-[2-((3R)-3-fluoromethylmorpholino)ethyl]piperazine dihydrochloride], for which the melting point was in the range of 145 to 155 °C. In addition, the inhibition at 1 mg/kg at h-NK1 receptors was greater than 80%.
